Consider eight compounds from patent US20020013478A1, “Calanolide analogues and methods of their use” (Sarawak Medichem Pharmaceuticals,Inc., priority 1994, published 2002).

For data set [1], the system named is HIV-1. To be noted: for Maximum Protection (%): CEM-SS MTT assay; for protecting cells against HIV infection: text summary of Table I. In general terms: Tetrazolium dyes change colour on reduction, which living cells bring about.
Data set [2] deals with HIV-1. Put plainly: microbe, parasite or virus in culture. To be noted: Human immunodeficiency virus 1, CEM-SS.
Another data set concerns CEM-SS cells. The data set is described as follows: CEM-SS MTT assay, cytotoxicity (Table I). The class given is cell-based, human. To be noted: Homo sapiens.
A further data set has as its system HCMV. Put plainly: HCMV semi-automated CPE-inhibition assay in human foreskin fibroblast cells. The data set is classed as cell-based, human cytomegalovirus. To be noted: Table II.
For a further data set, the system named is HBV. Put plainly: HBV replication in cultures of 2.2.15 cells, extracellular HBV virion DNA (primary assay). To be noted: for activity in primary assay (HBV virion): text summary of Table IV.
For data set [3], the system named is human foreskin fibroblast cells. Put plainly: Toxicity run with the HCMV assay, human foreskin fibroblast cells. The data set is classed as cell-based. To be noted: Table II. As to the method:
(§1) [table] […] The media from the wells is then aspirated and 2 mL of each drug concentration is then added to each well. The cells are then incubated in a CO2 incubator at 37° C. for 72 h. At the end of this time, the media-drug solution is removed and the cells washed. […] The cell-media mixture is then pipetted up and down vigorously to break up the cell suspension, and 0.2 mL of the mixture is added to 9.8 mL of Isoton III and counted using a Coulter Counter. Each sample is counted three times with three replicate wells per sample. The procedure for plating cells and adding drug is the same as for the MTT Assay. After drug addition, the plates are incubated for seven days in a CO2 incubator at 37° C. […] This is incubated in the CO2 incubator for one hour. The dye is aspirated and the cells are washed using a Nunc Plate Washer. […] The plates are rotated for 15 minutes and the optical densities are read at 550 nm on a plate reader.

Another data set deals with HBV RI. Put plainly: HBV replication in 2.2.15 cells, intracellular DNA replication intermediates (secondary assay). To be noted: for EC50: read-out: HBV RI EC50; for EC90: read-out: HBV RI EC90.
Another data set has as its system 2.2.15 cells. Put plainly: Toxicity in 2.2.15 cells, neutral red dye uptake. The data set is classed as cell-based, human. As to the method: Cells of 2.2.15 were grown to confluence in 96-well flat-bottomed tissue culture plates and treated with compounds (in 0.2 mL culture medium/well) as described above. Four concentrations of each compound were assayed, each in triplicate cultures, in 3- to 10-fold steps. Untreated control cultures were maintained on each 96-well plate. On each 96-well plate, wells containing no cells were used to correct for light scattering.

In a further data set the test system is H112-2 HIV viral strain. The data set is described as follows: In vitro MTT assay, isolate not pre-treated with AZT (Example 37, FIGS. 2). To be noted: H112-2 strain; FIGS. 2(a)-2(e).
A further data set relates to G910-6 HIV viral strain. The data set is described as follows: In vitro MTT assay, AZT-resistant isolate (Example 37, FIGS. 1). To be noted: G910-6 strain, FIGS. 1(a)-1(e).
In data set [4] the test system is human foreskin fibroblast cells. Put plainly: Toxicity run with the VZV assay, human foreskin fibroblast cells. The class given is cell-based. To be noted: Table II. As to the method:
as §1

The test system of a further data set is Raji or Daudi cells. Put plainly: Toxicity run with the EBV assay. The class given is cell-based, human. To be noted: Table II. An excerpt:
IC50 (50% inhibitory concentration) is the concentration required to inhibit cell proliferation by 50%

The subject of another data set is VZV. Put plainly: VZV plaque reduction assay in human foreskin fibroblast cells. To be noted: Table II. The class given is cell-based, varicella zoster virus. The protocol: Two days prior to use, HFF cells are plated into six-well plates and incubated at 37° C. with 5% CO2 and 90% humidity. On the date of assay, the drug is made up at twice the desired concentration in 2x MEM and then serially diluted 1:5 in 2x MEM using six concentrations of drug. The initial starting concentration is usually 200 gg/mL down to 0.06 μg/mL. The virus to be used is diluted in MEM containing 10% FBS to a desired concentration which will give 20-30 plaques per well. The media is then aspirated from the wells and 0.2 mL of virus is added to each well in duplicate with 0.2 mL of media being added to drug toxicity wells. The plates are then incubated for one hour with shaking every fifteen minutes. After the incubation period, an equal amount of 1% agarose was added to an equal volume of each drug dilution. This will give final drug concentrations beginning with 100 μg/mL and ending with 0.03 μg/mL and a final agarose overlay concentration of 0.5%. The drug agarose mixture is applied to each well in 2 mL volume and the plates then incubated for three days, after which the cells were stained with a 1.5% solution of neutral red. At the end of 4-6hr incubation period, the stain is aspirated, and plaques counted using a stereomicroscope at lOx magnification.
The procedure is essentially the same as for the HSV plaque assay described above with two exceptions:
1. After addition of the drug, the plates are incubated for ten days.
2. On days three and six, an additional 1 mL overlay with equal amounts of 2x MEM and 1% agarose are added.
On the technique in general: Plaques are areas of infected cells; plaque reduction assays count them against a control.

For another data set, the system named is EBV. Put plainly: EBV assay: superinfection of Raji or Daudi cells with P3HR-1, immunofluorescence for EA and VCA. The class given is cell-based, Epstein-Barr virus. To be noted: Table II. The source says: There are two prototypes of infectious EBV. One is exemplified by the virus derived from supernatant fluids of the P3HR-1cell line. This cell line produces nontransforming virus that causes the production of early antigen (EA) after primary infection or superinfection of B cell lines. The other prototype is exemplified by the B-95-8 virus. This virus immortalized cord blood lymphocytes and induced tumors in marmosets.
The virus used in our assays is P3HR-1.
Ramos is an exceptional B cell line derived from Burkitt's lymphoma tumor but containing no detectable EBV genome copies and is EBNA negative. Ramos/AW was obtained by in vitro infection of Ramos with the P3HR-1 virus and contains one resident EBV genome copy/cell. Raji is a Burkitt's lymphoma cell line containing 60 EBV genomes/cell, and will be the primary cell used for screening antiviral activity against EBV EA expression. Daudi is a low level producer that contains 152 EBV genome copies/cell. It spontaneously expresses EBV EA in 0.25%-0.5% of the cells. It will be used in follow-up studies to confirm activity. These cell lines respond to superinfection by EBV by expressing EA(D), EA(R), and VCA. All cell lines are maintained in RPMI-1640 medium supplemented by 10% FCS, L-glutamine and 100 μg/mL gentamicin. The cultures are fed twice weekly and the cell concentration adjusted to 3×10^5/mL. The cells are kept at 37° C. in a humidified atmosphere with 5% CO2.
Cells are infected with the P3HR-1 strain of EBV and the drugs to be tested are added after adsorption (45 minutes at 37° C.) and washing of the cell cultures. The cultures are incubated for two days in complete medium to allow viral gene expression. Following the 48 hr incubation period, the number of cells of each sample are counted and smears made. Monoclonal antibodies to the different EA components and VCA are then added to the cells incubated and washed. This is followed by a fluorescein conjugated rabbit anti-mouse Ig antibody; and the number of fluorescence positive cells in the smears are counted. The total number of cells in the cultures positive for EA or VCA are then calculated and compared.

Data set [5] relates to uninfected cells (MT-2, CEM-SS). Put plainly: MTT cytotoxicity on uninfected cells (Example 37). The class given is cell-based, human.

Where two headings read alike, the source gives them in different places.

A word on the EC50: it is the concentration needed to bring the measured effect to its halfway point. Broadly, the melting point is the temperature, or range, at which the solid turns liquid. Broadly, the IC50 is the concentration needed to halve the response being measured. `CCCc1cc(=O)oc2c(C(=O)[C@@H](C)[C@@H](C)O)c(O)c3c(c12)OC(C)(C)C=C3` (relative stereo) [(±)-8a, 6,6-Dimethyl-9-hydroxy-10-[2(S*)-methyl-3(R*)-hydroxybutyro-]4-propyl-2H,6H-benzo[1,2-b:3,4b′]dipyran-2-one] registered a melting point of 66 to 67 °C. For the same compound, in the data set with HIV-1 [1], the “Maximum Protection (%)” value came out at 84% and the “protecting cells against HIV infection” value is given as “highly efficacious”. The compound also gave a concentration for a half-maximal effect (EC50) in the data set with HIV-1 [2] of 6.16 µM. Moreover, the half-inhibitory concentration (IC50) in the data set with CEM-SS cells was determined as 23.8 µM.

In general, EC90 refers to the concentration needed for an effect of 90%. Consider `CCCc1cc(=O)oc2c3c(c4c(c12)OC(C)(C)C=C4)OC(C)C(C)(C)C3=O` (racemic) [(±)-15a, (±)-10,11-Dihydro-6,6,10,11,11-pentamethyl-4-propyl-2H,6H, 12H-benzo[1,2-b:3,4-b′:5,6-b″]tripyran-2,12-dione], for which the EC50 with HCMV (Human betaherpesvirus 5, Fibroblast) is above 100 µg/mL; in the data set on HBV (Hepatitis B virus, read-out: HBV EC50), 2 µM; in the data set with HBV (Hepatitis B virus, read-out: HBV Virion EC50), 2.8 µM; with HBV RI (Hepatitis B virus), above 30 µM. The concentration for an effect of 90% (EC90) in the data set on HBV (Hepatitis B virus, read-out: HBV EC90) is 16 µM; in the data set on HBV (Hepatitis B virus, read-out: HBV Virion EC90) it was 20 µM; in the data set with HBV RI (Hepatitis B virus) it was above 30 µM. Also, the “activity in primary assay (HBV virion)” value in the data set with HBV was “active”. Also, the 50% inhibitory concentration (IC50) in [3] (Homo sapiens, Fibroblast) is above 100 µg/mL; in the data set with CEM-SS cells, 19.3 µM; in the data set on 2.2.15 cells (Homo sapiens, Table II, read-out: HBV IC50) it was 1990 µM; in the data set on 2.2.15 cells (Homo sapiens, Table IV, HBV RI columns, read-out: HBV RI IC50), 1790 µM; in the data set on 2.2.15 cells (Homo sapiens, Table IV, HBV Virion columns, read-out: HBV Virion IC50) it was 1790 µM.

The compound `CCCc1cc(=O)oc2c(C(=O)[C@@H](C)[C@H](C)O)c(O)c3c(c12)OC(C)(C)C=C3` (relative stereo) [(±)-8b, 6,6-Dimethyl-9-hydroxy-10-12(S*)-methyl-3(S*)-hydroxybutyro]4-propyl-2H,6H-benzo[1,2-b:3,4-b′]dipyran-2-one] registered a melting point of 115 °C. Further, in the data set on HIV-1 [1], the “Maximum Protection (%)” value was 81% and the “protecting cells against HIV infection” value is on record as “highly efficacious”. In the data set on HIV-1 [2], the half-maximal effective concentration (EC50) was found to be 2.28 µM. The compound also displayed an IC50 in the data set with CEM-SS cells of 21.5 µM.

Turning to `Cc1cn([C@H]2C[C@H](N=[N+]=[N-])[C@@H](CO)O2)c(=O)[nH]c1=O` [AZT, reference compound], the “antiviral effect (reducing viral CPE)” value with H112-2 HIV viral strain was “sensitive to AZT”; with G910-6 HIV viral strain, “little to no effect”.

As to `CCCc1cc(=O)oc2c3c(c4c(c12)OC(C)(C)C=C4)OCC(C)C3=O` (racemic) [(±)-15f], in data set [4], the “VZV IC50” value is 60.0 µg/mL. Besides, the “HCMV EC50” value in the data set with HCMV is above 100 µg/mL. For the same compound, the “EBV IC50” value in the data set on Raji or Daudi cells is above 50 µg/mL. Moreover, the “VZV EC50” value in the data set with VZV was above 20 µg/mL. The EC50 in the data set with HBV (read-out: HBV EC50, Table II) was found to be 0.67 µM; in the data set with HBV (read-out: HBV Virion EC50, Table IV) it was 0.81 µM; with HBV RI (Table IV), 5.7 µM. Also, the EC90 in the data set with HBV (read-out: HBV Virion EC90, Table IV) stood at 5 µM; with HBV RI (Table IV), 15 µM. For the same compound, the “activity in primary assay (HBV virion)” value in the data set with HBV was “active”. In addition, the “HCMV IC50” value in [3] was above 100 µg/mL. Besides, the “EBV EC50” value in the data set on EBV was above 50 µg/mL. The “activity in secondary assay (HBV RI)” value in the data set on HBV RI (text summary of Table IV) was “active”. Further, the IC50 in the data set on 2.2.15 cells (Table II, read-out: HBV IC50) turned out to be 270 µM; in the data set on 2.2.15 cells (Table IV, HBV RI columns, read-out: HBV RI IC50) it was 303 µM; in the data set with 2.2.15 cells (Table IV, HBV Virion columns, read-out: HBV Virion IC50), 303 µM.

The compound `CCCc1cc(=O)oc2c3c(c4c(c12)OC(C)(C)C=C4)OC(C)=C(C)C3O` (stereo not drawn) [Compound 6, 12-hydroxy-6,6,10,11-tetramethyl-4-propyl-2H,6H,12H-benzo[1,2-b:3,4-b′:5,6-b″]tripyran-2-one] showed a melting point of 176 to 177 °C.

For `CCCc1cc(=O)oc2c3c(c4c(c12)OC(C)(C)C=C4)O[C@H](C)[C@@H](C)[C@@H]3O` (racemic) [(±)-calanolide A, (±)-Calanolide A], the “antiviral effect (reducing viral CPE)” value in the data set with H112-2 HIV viral strain is on record as “nearly as effective as (+)-calanolide A”; in the data set with G910-6 HIV viral strain, “effective in reducing viral CPE”.

For the compound `CCCc1cc(=O)oc2c3c(c4c(c12)OC(C)(C)C=C4)O[C@@H](C)[C@H](C)[C@H]3O` [(−)-1, (-)-Calanolide A], the “antiviral effect (reducing viral CPE)” value in the data set with H112-2 HIV viral strain and with G910-6 HIV viral strain was “very little antiviral effect” each time. The toxicity result is “relatively non-toxic” in data set [5] (FIGS. 2(a)-2(e)) and “relatively non-toxic” in [5] (at concentrations of 1 μg/mL, FIGS. 1(a)-1(e)). For the same compound, the “HCMV EC50” value with HCMV was above 20 µg/mL. In addition, the “EBV IC50” value in the data set with Raji or Daudi cells is above 100 µg/mL. Also, the EC50 in the data set on HBV (read-out: HBV EC50, Table II) was above 30 µM. Further, in data set [3], the “HCMV IC50” value turned out to be 80.3 µg/mL. Besides, the “EBV EC50” value in the data set with EBV was above 100 µg/mL. Moreover, in the data set with 2.2.15 cells (Table II, read-out: HBV IC50), the IC50 was found to be 173 µM.
